Measured values taken from US20240425479A1, “HALO-SUBSTITUTED AMINO AZA-HETEROARYL COMPOUNDS AS INHIBITORS OF THE HAEMATOPOIETIC PROGENITOR KINASE 1 (HPK1)” (priority 2021, published 2024).

Target: T1, Recombinant (1-346) HPK1 (h) (Homo sapiens, UniProt Q92918)
T1 construct: Recombinant (1-346) HPK1 (h) is incubated with 8 mM MOPS pH 7.0
T1 sequence (Q92918 1-346): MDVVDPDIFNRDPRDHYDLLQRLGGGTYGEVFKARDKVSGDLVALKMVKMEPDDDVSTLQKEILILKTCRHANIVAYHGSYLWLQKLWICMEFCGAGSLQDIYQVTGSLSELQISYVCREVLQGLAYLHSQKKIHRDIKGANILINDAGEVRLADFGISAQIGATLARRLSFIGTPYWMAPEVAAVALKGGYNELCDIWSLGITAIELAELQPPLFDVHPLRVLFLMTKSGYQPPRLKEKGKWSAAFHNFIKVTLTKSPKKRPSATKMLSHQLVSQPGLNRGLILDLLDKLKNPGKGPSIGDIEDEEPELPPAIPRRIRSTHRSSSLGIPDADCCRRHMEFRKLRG
Test: HPK1 human STE kinase enzymatic radiometric assay
Type: biochemical
Settings: read-out: HPK1 IC50 nM Range
Outline: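 Recombinant HPK1 (1-346) incubated 40 min at RT with 0.33 mg/mL myelin basic protein and [gamma-33P]-ATP in 8 mM MOPS pH 7.0, 0.2 mM EDTA, 10 mM Mg acetate; reaction started with Mg/ATP. Stopped with 0.5% phosphoric acid, spotted on P30 filtermat, washed, scintillation counted. Compounds tested as 9-point 3-fold dilutions.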

SMILES	IC50 [nM]
Cc1[nH]c(=O)c2cc(F)c(-c3nc(-c4ccc(N5CCN(C(C)C)CC5)cc4)c(F)nc3N)cc2c1F [Example I-168, 6-(3-amino-5-fluoro-6-(4-(4-isopropylpiperazin-1-yl)phenyl)pyrazin-2-yl)-4,7-difluoro-3-methylisoquinolin-1(2H)-one]	0.1 to 10
CN(C)Cc1cccc(-c2nc(-c3ccc4c(c3)CCNC4=O)c(N)nc2F)c1 [Example I-277, 6-(3-amino-6-(3-((dimethylamino)methyl)phenyl)-5-fluoropyrazin-2-yl)-3,4-dihydroisoquinolin-1(2H)-one]	11 to 100
CN(C)Cc1cc(-c2nc(-c3ccc4c(c3)CCNC4=O)c(N)nc2F)c(F)c(F)c1N1CCOCC1 [Example I-262, 6-(3-amino-6-(5-((dimethylamino)methyl)-2,3-difluoro-4-morpholinophenyl)-5-fluoropyrazin-2-yl)-3,4-dihydroisoquinolin-1(2H)-one]	101 to 1000
CN(C)[C@@H]1CCOc2ccc(-c3nc(-c4cc5c(cc4F)C(=O)NCC5)c(N)nc3F)cc21 [Example I-288, (R)-6-(3-amino-6-(4-(dimethylamino)chroman-6-yl)-5-fluoropyrazin-2-yl)-7-fluoro-3,4-dihydroisoquinolin-1(2H)-one]	11 to 100
CN(C)[C@@H]1CCOc2ccc(-c3nc(-c4ccc5c(c4)CCNC5=O)c(N)nc3F)cc21 [Example I-287, (R)-6-(3-amino-6-(4-(dimethylamino)chroman-6-yl)-5-fluoropyrazin-2-yl)-3,4-dihydroisoquinolin-1(2H)-one]	0.1 to 10
C[C@H]1CN(c2ccc(-c3nc(-c4cc5c(cc4F)C(=O)NCC5)c(N)nc3F)cc2CN2CCC2)CCO1 [Example I-215, (S)-6-(3-amino-6-(3-(azetidin-1-ylmethyl)-4-(2-methylmorpholino)phenyl)-5-fluoropyrazin-2-yl)-7-fluoro-3,4-dihydroisoquinolin-1(2H)-one]	0.1 to 10
CO[C@@H]1CCN(Cc2cc(-c3nc(-c4cc(F)c5c(c4)CCNC5=O)c(N)nc3F)ccc2N2CCOCC2)C1 [Example I-155, (R)-6-(3-amino-5-fluoro-6-(3-((3-methoxypyrrolidin-1-yl)methyl)-4-morpholinophenyl)pyrazin-2-yl)-8-fluoro-3,4-dihydroisoquinolin-1(2H)-one]	0.1 to 10
Cc1c[nH]c(=O)c2ccc(-c3nc(-c4cc(CN(C)C)c(N5CCOCC5)c(F)c4F)c(F)nc3N)cc12 [Example I-264, 6-(3-amino-6-(5-((dimethylamino)methyl)-2,3-difluoro-4-morpholinophenyl)-5-fluoropyrazin-2-yl)-4-methylisoquinolin-1(2H)-one]	101 to 1000
Cc1c[nH]c(=O)c2ccc(-c3nc(-c4ccc(C5CCOCC5)c(CN5CCC5)c4)c(F)nc3N)cc12 [Example I-206, 6-(3-amino-6-(3-(azetidin-1-ylmethyl)-4-(tetrahydro-2H-pyran-4-yl)phenyl)-5-fluoropyrazin-2-yl)-4-methylisoquinolin-1(2H)-one]	0.1 to 10
Cc1nc2cc(-c3nc(-c4ccc(N5CC6(CN(C)CCO6)C5)cc4)c(F)nc3N)ccc2c(=O)[nH]1 [Example I-130, 7-(3-amino-5-fluoro-6-(4-(8-methyl-5-oxa-2,8-diazaspiro[3.5]nonan-2-yl)phenyl)pyrazin-2-yl)-2-methylquinazolin-4(3H)-one]	101 to 1000
COCCN(C)Cc1cc(-c2nc(-c3cc4c(cc3F)C(=O)NCC4)c(N)nc2F)ccc1C1CCOCC1 [Example I-175, 6-(3-amino-5-fluoro-6-(3-(((2-methoxyethyl)(methyl)amino)methyl)-4-(tetrahydro-2H-pyran-4-yl)phenyl)pyrazin-2-yl)-7-fluoro-3,4-dihydroisoquinolin-1(2H)-one]	0.1 to 10
CCN(C)Cc1cc(-c2nc(-c3ccc4c(=O)[nH]cc(C)c4c3)c(N)nc2F)cc(C)c1OC [Example I-299, 6-(3-amino-6-(3-((ethyl(methyl)amino)methyl)-4-methoxy-5-methylphenyl)-5-fluoropyrazin-2-yl)-4-methylisoquinolin-1(2H)-one]	11 to 100
Cc1c[nH]c(=O)c2cc(F)c(-c3nc(-c4ccc(N5CCN(C(C)C)CC5)cc4)c(F)nc3N)cc12 [Example I-234, 6-(3-amino-5-fluoro-6-(4-(4-isopropylpiperazin-1-yl)phenyl)pyrazin-2-yl)-7-fluoro-4-methylisoquinolin-1(2H)-one]	0.1 to 10
C[C@H]1CN(c2ccc(-c3nc(-c4ccc5c(c4)CCNC5=O)c(N)nc3F)cc2CN2CCC2)CCO1 [Example I-214, (S)-6-(3-amino-6-(3-(azetidin-1-ylmethyl)-4-(2-methylmorpholino)phenyl)-5-fluoropyrazin-2-yl)-3,4-dihydroisoquinolin-1(2H)-one]	0.1 to 10
Cc1c[nH]c(=O)c2c(F)cc(-c3nc(-c4ccc(C5CCOCC5)c(CN(C)C)c4)c(F)nc3N)cc12 [Example I-167, 6-(3-amino-6-(3-((dimethylamino)methyl)-4-(tetrahydro-2H-pyran-4-yl)phenyl)-5-fluoropyrazin-2-yl)-8-fluoro-4-methylisoquinolin-1(2H)-one]	0.1 to 10
C[C@@H]1CCCN1Cc1cc(-c2nc(-c3ccc4c(=O)[nH]cc(Cl)c4c3)c(N)nc2F)ccc1C1CCOCC1 [Example I-227, (R)-6-(3-amino-5-fluoro-6-(3-((2-methylpyrrolidin-1-yl)methyl)-4-(tetrahydro-2H-pyran-4-yl)phenyl)pyrazin-2-yl)-4-chloroisoquinolin-1(2H)-one]	11 to 100
CN(C)Cc1cc(-c2nc(-c3ccc4c(=O)[nH]cc(F)c4c3)c(N)nc2F)cc2c1OCCC2 [Example I-268, 6-(3-amino-6-(8-((dimethylamino)methyl)chroman-6-yl)-5-fluoropyrazin-2-yl)-4-fluoroisoquinolin-1(2H)-one]	0.1 to 10
CN(C)[C@@H]1COc2ccc(-c3nc(-c4cc5c(cc4F)C(=O)NCC5)c(N)nc3F)cc21 [Example I-255, (S)-6-(3-amino-6-(3-(dimethylamino)-2,3-dihydrobenzofuran-5-yl)-5-fluoropyrazin-2-yl)-7-fluoro-3,4-dihydroisoquinolin-1(2H)-one]	11 to 100
C[C@H]1CCCN1Cc1cc(-c2nc(-c3ccc4c(=O)[nH]cc(F)c4c3)c(N)nc2F)ccc1C1CCOCC1 [Example I-228, (S)-6-(3-amino-5-fluoro-6-(3-((2-methylpyrrolidin-1-yl)methyl)-4-(tetrahydro-2H-pyran-4-yl)phenyl)pyrazin-2-yl)-4-fluoroisoquinolin-1(2H)-one]	0.1 to 10
Cc1cc(-c2nc(-c3ccc4c(=O)[nH]cc(F)c4c3)c(N)nc2F)cc2c1CCN(C)C2 [Example I-296, 6-(3-amino-6-(2,5-dimethyl-1,2,3,4-tetrahydroisoquinolin-7-yl)-5-fluoropyrazin-2-yl)-4-fluoroisoquinolin-1(2H)-one]	0.1 to 10
CN(C)Cc1cc(-c2nc(-c3ccc4c(c3)CCNC4=O)c(N)nc2F)cnc1N1CCOCC1 [Example I-237, 6-(3-amino-6-(5-((dimethylamino)methyl)-6-morpholinopyridin-3-yl)-5-fluoropyrazin-2-yl)-3,4-dihydroisoquinolin-1(2H)-one]	11 to 100
COC1CCN(Cc2cc(-c3nc(-c4cc5c(cc4F)C(=O)NCC5)c(N)nc3F)ccc2N2CCOCC2)C1 (stereo not shown) [Example I-134, 6-(3-amino-5-fluoro-6-(3-((3-methoxypyrrolidin-1-yl)methyl)-4-morpholinophenyl)pyrazin-2-yl)-7-fluoro-3,4-dihydroisoquinolin-1(2H)-one]	0.1 to 10
